Measured values as given in US10471139B2, “Toll-like receptor agonists” (The University of Kansas, priority 2013, dated 2019).
Read-outs that look alike come from different tables or passages of the source.

Molecular target: T1, human TLR7 (Homo sapiens, UniProt Q9NYK1)
T1 construct: expressed in transfected cells; host or cells: HEK293 (HEK-Blue-7)
T1 sequence (Q9NYK1 27-1049): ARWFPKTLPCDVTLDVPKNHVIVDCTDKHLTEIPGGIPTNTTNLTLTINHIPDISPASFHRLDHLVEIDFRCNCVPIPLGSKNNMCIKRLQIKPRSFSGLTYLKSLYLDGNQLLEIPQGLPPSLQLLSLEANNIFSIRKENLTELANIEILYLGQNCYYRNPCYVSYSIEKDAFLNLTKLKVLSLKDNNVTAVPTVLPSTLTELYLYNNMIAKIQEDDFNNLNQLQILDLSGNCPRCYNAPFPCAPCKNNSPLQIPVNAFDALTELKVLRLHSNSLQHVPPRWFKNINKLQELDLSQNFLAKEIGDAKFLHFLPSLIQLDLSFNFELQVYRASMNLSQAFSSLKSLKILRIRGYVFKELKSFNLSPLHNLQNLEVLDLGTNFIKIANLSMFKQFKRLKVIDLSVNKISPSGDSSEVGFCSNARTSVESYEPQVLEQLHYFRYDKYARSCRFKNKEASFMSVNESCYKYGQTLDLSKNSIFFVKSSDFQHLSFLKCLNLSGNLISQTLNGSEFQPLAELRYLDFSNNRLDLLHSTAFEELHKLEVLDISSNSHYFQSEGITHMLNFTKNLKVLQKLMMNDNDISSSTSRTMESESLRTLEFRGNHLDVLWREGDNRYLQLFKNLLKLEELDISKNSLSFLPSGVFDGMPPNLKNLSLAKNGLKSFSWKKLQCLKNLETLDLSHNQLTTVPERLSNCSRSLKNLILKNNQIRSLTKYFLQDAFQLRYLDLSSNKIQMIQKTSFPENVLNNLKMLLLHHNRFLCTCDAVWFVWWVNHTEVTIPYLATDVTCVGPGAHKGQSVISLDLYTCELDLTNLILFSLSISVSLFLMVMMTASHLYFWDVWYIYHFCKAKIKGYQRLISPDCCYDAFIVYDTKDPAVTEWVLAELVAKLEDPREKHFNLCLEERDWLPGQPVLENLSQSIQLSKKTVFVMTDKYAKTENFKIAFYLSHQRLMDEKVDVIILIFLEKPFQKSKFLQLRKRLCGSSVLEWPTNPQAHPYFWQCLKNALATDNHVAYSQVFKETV
Assay: Human TLR7 reporter gene assay (NF-κB induction), HEK-Blue-7 cells
Format: cell-based

[1] = human TLR7-specific reporter gene assay, Inactive = no activity up to 500 μg/mL
[2] = human TLR7-specific reporter gene assay, Inactive = no activity up to 500 μg/mL, read-out: hTLR7-agonistic Activity (EC50)

From the text: Human TLR-7/-8 Reporter Gene Assays (NF-κB Induction).
The induction of NF-κB was quantified using HEK-Blue-7 (hTLR7-specific) and HEK-Blue-8 (hTLR8-specific) cells. HEK293 cells stably co-transfected with human TLR7 or human TLR8, MD2, and secreted alkaline phosphatase (sAP), were maintained in HEK-Blue™ Selection medium containing zeocin and normocin. Stable expression of secreted alkaline phosphatase (sAP) under control of NF-κB/AP-1 promoters is inducible by appropriate TLR agonists, and extracellular sAP in the supernatant is proportional to NF-κB induction.
HEK293 cells stably co-transfected with the appropriate hTLR (or NOD) and secreted alkaline phosphatase (sAP) were maintained in HEK-Blue™ Selection medium. Stable expression of secreted alkaline phosphatase (sAP) under control of NF-κB/AP-1 promoters is inducible by appropriate TLR/NOD agonists, and extracellular sAP in the supernatant is proportional to NF-κB induction.

SMILES | hTLR7-agonistic Activity (EC50) [1] | TLR7-specific agonistic activity EC50 (primary screen) | EC50 [2] | also measured
CCCCc1nc2c(NC(=O)CCC)nccc2n1Cc1ccccc1 [Compound 6b, N-(1-Benzyl-2-butyl-1H-imidazo[4,5-c]pyridin-4-yl) butyramide] | Inactive | complete abrogation of activity | – | –
CCCCc1nc2c(N)nc(-c3ccc(C(N)=O)cc3)cc2n1Cc1ccccc1 [Compound 23c, 4-(4-Amino-1-benzyl-2-butyl-1H-imidazo[4,5-c]pyridin-6-yl)benzamide] | Inactive | – | – | –
CCCCc1nc2c(N)nc(NCc3cccc(OC)c3)cc2n1Cc1ccccc1 [Compound 19h, 1-Benzyl-2-butyl-N^6-(3-methoxybenzyl)-1H-imidazo[4,5-c]pyridine-4,6-diamine] | – | – | 610 nM | –
CCCCc1nc2c(N)nc(NCc3ccc(-c4ccccc4)cc3)cc2n1Cc1ccccc1 [Compound 19o, N^6-([1,1′-Biphenyl]-4-ylmethyl)-1-benzyl-2-butyl-1H-imidazo[4,5-c]pyridine-4,6-diamine] | – | active | 1090 nM | –
CCCCc1nc2c(N)nc(NCc3ccncc3)cc2n1Cc1ccccc1 [Compound 19l, 1-Benzyl-2-butyl-N^6-(pyridin-4-ylmethyl)-1H-imidazo[4,5-c]pyridine-4,6-diamine] | – | – | 250 nM | –
CCCCc1nc2c(N)nc3ccccc3c2n1Cc1ccccc1 [1-benzyl-2-butyl-1H-imidazo[4,5-c]quinolin-4-amine, reference compound] | – | – | – | EC50 (primary screen, read-out: TLR7-specific agonistic activity EC50): 60 nM
CCCCc1nc2c(N)nc(NCc3ccccc3)cc2n1Cc1ccccc1 [Compound 19f, N^6,1-Dibenzyl-2-butyl-1H-imidazo[4,5-c]pyridine-4,6-diamine] | – | – | 210 nM | TLR7-agonistic potency relative to compound 5 (fold over compound 5): ~7.6
CCCCc1nc2c(NC(C)=O)nccc2n1Cc1ccccc1 [Compound 6a, N-(1-Benzyl-2-butyl-1H-imidazo[4,5-c]pyridin-4-yl)acetamide] | Inactive^a | complete abrogation of activity | – | –
CCCCc1nc2c(N)nc(Cc3ccccc3)cc2n1Cc1ccccc1 [Compound 23g, 1,6-Dibenzyl-2-butyl-1H-imidazo[4,5-c]pyridin-4-amine] | – | restored | 280 nM | –
CCCCc1nc2c(N)nc(N)cc2n1Cc1ccccc1 [Compound 19a, 1-Benzyl-2-butyl-1H-imidazo[4,5-c]pyridine-4,6-diamine] | – | – | 1250 nM | –
CCCCc1nc2c(N)nc(Cl)cc2n1Cc1ccccc1 [Compound 17, 1-Benzyl-2-butyl-6-chloro-1H-imidazo[4,5-c]pyridin-4-amine] | Inactive | inactive | – | –
CCCCc1nc2c(N)nc(-c3ccccc3)cc2n1Cc1ccccc1 [Compound 23b, 1-Benzyl-2-butyl-6-phenyl-1H-imidazo[4,5-c]pyridin-4-amine] | Inactive | – | – | –
CCCCc1nc2c(N)nc(Cc3ccc(OC(F)(F)F)cc3)cc2n1Cc1ccccc1 [Compound 23i, 1-Benzyl-2-butyl-6-(4-(trifluoromethoxy)benzyl)-1H-imidazo[4,5-c]pyridin-4-amine] | Inactive | – | – | –
CCCCc1nc2c(N)nc(NCc3ccc(Cl)cc3)cc2n1Cc1ccccc1 [Compound 19j, 1-Benzyl-2-butyl-N^6-(4-chlorobenzyl)-1H-imidazo[4,5-c]pyridine-4,6-diamine] | – | – | 640 nM | –
CCCCCCCNc1cc2c(nc(CCCC)n2Cc2ccccc2)c(N)n1 [Compound 19c, 1-Benzyl-2-butyl-N^6-heptyl-1H-imidazo[4,5-c]pyridine-4,6-diamine] | – | – | 760 nM | –
CCCCc1nc2c(N)nc(CCc3ccccc3)cc2n1Cc1ccccc1 [Compound 23j, 1-Benzyl-2-butyl-6-phenethyl-1H-imidazo[4,5-c]pyridin-4-amine] | – | restored | 570 nM | –
CCCCNc1nccc2c1nc(CCCC)n2Cc1ccccc1 [Compound 11a, 1-Benzyl-N,2-dibutyl-1H-imidazo[4,5-c]pyridin-4-amine] | Inactive | – | – | –
